Test system: DNA repair protein genes
Assay: DNA chip mRNA expression in yeast, DNA repair protein genes (Table 3)
Assay type: cell-based, Saccharomyces cerevisiae S288C
Conditions: incubated two hours, concentrations as in the 1st table
How it was run: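 Whole-genome yeast DNA chip hybridization (65° C., >12 h) of Cy-labeled cDNA from S288C cells exposed 2 h at 25° C. to a sub-lethal toxicant dose in YPD; value is intensity relative to chemical-free control.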

## Cl[C@H]1[C@H](Cl)[C@@H](Cl)[C@@H](Cl)[C@H](Cl)[C@H]1Cl [(7), γ-hexachlorocyclohexane]
Yeast gene YAL015C
  The level of expressed mRNA in the presence of chemical substance/The level of expressed mRNA in the absence of chemical substance: 1.2
Yeast gene YAR007C
  The level of expressed mRNA in the presence of chemical substance/The level of expressed mRNA in the absence of chemical substance: 0.8
Yeast gene YBL019W
  The level of expressed mRNA in the presence of chemical substance/The level of expressed mRNA in the absence of chemical substance: 1.2
Yeast gene YBR073W
  The level of expressed mRNA in the presence of chemical substance/The level of expressed mRNA in the absence of chemical substance: 0.6
Yeast gene YBR272C
  The level of expressed mRNA in the presence of chemical substance/The level of expressed mRNA in the absence of chemical substance: 1.9
Yeast gene YCR014C
  The level of expressed mRNA in the presence of chemical substance/The level of expressed mRNA in the absence of chemical substance: 1.1
Yeast gene YDL017W
  The level of expressed mRNA in the presence of chemical substance/The level of expressed mRNA in the absence of chemical substance: 1.1
Yeast gene YDL059C
  The level of expressed mRNA in the presence of chemical substance/The level of expressed mRNA in the absence of chemical substance: 1.1
Yeast gene YDL200C
  The level of expressed mRNA in the presence of chemical substance/The level of expressed mRNA in the absence of chemical substance: 1.7
Yeast gene YDR054C
  The level of expressed mRNA in the presence of chemical substance/The level of expressed mRNA in the absence of chemical substance: 1.1
Yeast gene YDR369C
  The level of expressed mRNA in the presence of chemical substance/The level of expressed mRNA in the absence of chemical substance: 0.4
Yeast gene YEL019C
  The level of expressed mRNA in the presence of chemical substance/The level of expressed mRNA in the absence of chemical substance: 1.2
Yeast gene YEL037C
  The level of expressed mRNA in the presence of chemical substance/The level of expressed mRNA in the absence of chemical substance: 0.8
Yeast gene YER162C
  The level of expressed mRNA in the presence of chemical substance/The level of expressed mRNA in the absence of chemical substance: 0.5
Yeast gene YFL014W
  The level of expressed mRNA in the presence of chemical substance/The level of expressed mRNA in the absence of chemical substance: 5.5
Yeast gene YGL058W
  The level of expressed mRNA in the presence of chemical substance/The level of expressed mRNA in the absence of chemical substance: 0.0
Yeast gene YGL091C
  The level of expressed mRNA in the presence of chemical substance/The level of expressed mRNA in the absence of chemical substance: 1.3
Yeast gene YGL127C
  The level of expressed mRNA in the presence of chemical substance/The level of expressed mRNA in the absence of chemical substance: 1.0
Yeast gene YGL163C
  The level of expressed mRNA in the presence of chemical substance/The level of expressed mRNA in the absence of chemical substance: 1.0
Yeast gene YGL249W
  The level of expressed mRNA in the presence of chemical substance/The level of expressed mRNA in the absence of chemical substance: 1.2
Yeast gene YGR180C
  The level of expressed mRNA in the presence of chemical substance/The level of expressed mRNA in the absence of chemical substance: 0.5
Yeast gene YGR231C
  The level of expressed mRNA in the presence of chemical substance/The level of expressed mRNA in the absence of chemical substance: 2.1
Yeast gene YGR258C
  The level of expressed mRNA in the presence of chemical substance/The level of expressed mRNA in the absence of chemical substance: 1.5
Yeast gene YHR164C
  The level of expressed mRNA in the presence of chemical substance/The level of expressed mRNA in the absence of chemical substance: 0.8
Yeast gene YIL036W
  The level of expressed mRNA in the presence of chemical substance/The level of expressed mRNA in the absence of chemical substance: 1.4
Yeast gene YIL072W
  The level of expressed mRNA in the presence of chemical substance/The level of expressed mRNA in the absence of chemical substance: 1.7
Yeast gene YIL143C
  The level of expressed mRNA in the presence of chemical substance/The level of expressed mRNA in the absence of chemical substance: 0.8
Yeast gene YIL153W
  The level of expressed mRNA in the presence of chemical substance/The level of expressed mRNA in the absence of chemical substance: 1.6
Yeast gene YIR002C
  The level of expressed mRNA in the presence of chemical substance/The level of expressed mRNA in the absence of chemical substance: 1.3
Yeast gene YJL026W
  The level of expressed mRNA in the presence of chemical substance/The level of expressed mRNA in the absence of chemical substance: 0.5
Yeast gene YJR046W
  The level of expressed mRNA in the presence of chemical substance/The level of expressed mRNA in the absence of chemical substance: 0.9
Yeast gene YJR052W
  The level of expressed mRNA in the presence of chemical substance/The level of expressed mRNA in the absence of chemical substance: 1.2
Yeast gene YKL145W
  The level of expressed mRNA in the presence of chemical substance/The level of expressed mRNA in the absence of chemical substance: 1.6
Yeast gene YLR103C
  The level of expressed mRNA in the presence of chemical substance/The level of expressed mRNA in the absence of chemical substance: 1.3
Yeast gene YLR233C
  The level of expressed mRNA in the presence of chemical substance/The level of expressed mRNA in the absence of chemical substance: 0.8
Yeast gene YLR288C
  The level of expressed mRNA in the presence of chemical substance/The level of expressed mRNA in the absence of chemical substance: 1.3
Yeast gene YML032C
  The level of expressed mRNA in the presence of chemical substance/The level of expressed mRNA in the absence of chemical substance: 0.8
Yeast gene YML058W
  The level of expressed mRNA in the presence of chemical substance/The level of expressed mRNA in the absence of chemical substance: 0.6
Yeast gene YMR035W
  The level of expressed mRNA in the presence of chemical substance/The level of expressed mRNA in the absence of chemical substance: 2.3
Yeast gene YMR072W
  The level of expressed mRNA in the presence of chemical substance/The level of expressed mRNA in the absence of chemical substance: 1.4
Yeast gene YMR096W
  The level of expressed mRNA in the presence of chemical substance/The level of expressed mRNA in the absence of chemical substance: 1.9
Yeast gene YMR284W
  The level of expressed mRNA in the presence of chemical substance/The level of expressed mRNA in the absence of chemical substance: 0.8
Yeast gene YNL213C
  The level of expressed mRNA in the presence of chemical substance/The level of expressed mRNA in the absence of chemical substance: 1.4
Yeast gene YNL250W
  The level of expressed mRNA in the presence of chemical substance/The level of expressed mRNA in the absence of chemical substance: 1.2
Yeast gene YNL261W
  The level of expressed mRNA in the presence of chemical substance/The level of expressed mRNA in the absence of chemical substance: 1.0
Yeast gene YNL312W
  The level of expressed mRNA in the presence of chemical substance/The level of expressed mRNA in the absence of chemical substance: 0.5
Yeast gene YOL043C
  The level of expressed mRNA in the presence of chemical substance/The level of expressed mRNA in the absence of chemical substance: 1.0
Yeast gene YOR005C
  The level of expressed mRNA in the presence of chemical substance/The level of expressed mRNA in the absence of chemical substance: 1.4
Yeast gene YOR386W
  The level of expressed mRNA in the presence of chemical substance/The level of expressed mRNA in the absence of chemical substance: 1.8
Yeast gene YPL022W
  The level of expressed mRNA in the presence of chemical substance/The level of expressed mRNA in the absence of chemical substance: 0.8
Yeast gene YPL164C
  The level of expressed mRNA in the presence of chemical substance/The level of expressed mRNA in the absence of chemical substance: 0.9
Yeast gene YPL194W
  The level of expressed mRNA in the presence of chemical substance/The level of expressed mRNA in the absence of chemical substance: 1.5
Yeast gene YPR025C
  The level of expressed mRNA in the presence of chemical substance/The level of expressed mRNA in the absence of chemical substance: 1.4

From patent publication US8192962B2, “Processes for detecting toxic substances” (Daikin Industries, Ltd., priority 2001, dated 2012)
